Measurements from US8372582B2, “Methods of modulating metabolic memory” (Joslin Diabetes Center, Inc., priority 2006, dated 2013).
“Also recorded” adds a separate entry of the source.

What was measured:
bovine retinal pericytes = experiment: HG-induced apoptosis (DNA fragmentation) in cultured retinal pericytes; format: cell-based; details: for reversal of apoptosis / effects of HG once established: agent added during LG conditions after HG exposure; for effect on HG-induced apoptosis: pericytes in high glucose (20 mM), agent present with HG
Description: Cell apoptosis will be evaluated by measurement of DNA fragmentation using cell death detection kit (ROCHE diagnostics). Approximately 15000 cells are seeded in 96-well plates in DMEM with 20% FBS for 18 hours. BRP are starved for 24 hours and then stimulated with either 5.5 or 20 mM of d-glucose for an addition 72 hours. DNA fragmentation is measured in accordance to manufacture's protocol. Increases in caspase 3+9 cleared will also be measured using immunoblot analysis. Measurement of NF-κB activity in cultured cells. Activity of NF-κB will be assessed by a microwell colorimetric assay using the TransAM NFκB transcription factor assay kit (Active Motif, Carlsbad, Calif.) following manufacturer's instruction (Renard et al., Nucleic Acids Res 29, E21 (2001)).
Various potential mechanisms for the metabolic memory process in retinal pericytes were explored in vitro. Cells were culture in high glucose (HG, 20 mM glucose) for about 72 hours, and then for another 24 hours in low glucose (LG, 5.6 mM glucose). This mimics a period of hyperglycemia followed by normoglycemia, a common pattern in diabetics, who often have a period of poorly controlled glycemia before finding a regime that provides better control, thus providing a cultured cell model of metabolic memory.
(§1) The role of p38 MAPK was studied further using SB203580, a specific inhibitor for p38 MAPK a and […] and adenoviral vector of dominant negative p38 MAPKα and β isoforms (Wang et al., J Biol Chem 273, 2161-8 (1998)), either at the same time as starting HG condition or after 3 days of HG when cells are returning to LG condition. In addition, the effects of the antioxidant N-acetylcysteine (NAC) were also evaluated. Activation of p38 MAPK β and δ was evaluated by immunoblotting with anti-phospho p38 MAPK α and δ antibodies.

p38 MAPK = experiment: HG-induced p38 MAPK activation in pericytes (immunoblot); format: cell-based, bovine; details: high glucose
Excerpt: In addition to PKC activation, the effect of HG on p38 MAPK activation was also characterized, since PKC δ activation induced by HG can activate p38 MAPK in aortic smooth muscle and renal mesangial cells. […] HG was able to increase the phosphorylation of p38 MAPK by 2-fold in pericytes after three days of exposure (FIG. 4) in parallel with PKC δ activation and increases in apoptosis; no effects on JNK were observed.
as §1

SHP-1 = experiment: HG-induced SHP-1 expression in pericytes (Western blot); format: cell-based; details: high glucose
Description: (§2) Protein tyrosine phosphatases (PTPs) play a key role in the regulation of receptor tyrosine kinases such as the PDGF-β receptor. Thus, experiments were performed to determine the pathway by which glycemic memory prevented tyrosine phosphorylation of the PDGF-Beta receptor. Cultured pericytes were exposed to either low glucose conditions (˜5.5 mM glucose, LG), high glucose conditions (˜20 mM glucose, HG), or high glucose followed by low glucose (˜20 mM, ±5.5 mM glucose, HG+LG) for 72 hours per exposure. Pericytes were lysed, and lysates were run on an SDS/PAGE gel, then transferred to nitrocellulose for immunoblotting, according to already published procedures. Commercially available antibodies for SHP-1 and another protein tyrosine phosphatase, PTP-1B were used to probe the blot, according to manufacturer's instructions.

PDGF-Beta receptor = experiment: PDGF-BB-induced tyrosine phosphorylation of PDGF-β receptor in HG-treated pericytes (Western blot); format: cell-based; details: high glucose
Description: as §2
Cultured pericytes were treated with high glucose (˜20 mM glucose) and subsequently prepared for Western blot analyses as described in Example 2. An antibody directed against phosphorylated PDGF-Beta receptor was used to assess the effects of the HG treatment on receptor phosphorylation levels.

| Molecule | reversal of apoptosis / effects of HG once established (bovine retinal pericytes) | effect on HG-induced apoptosis (bovine retinal pericytes) | prevention of HG induced p38 MAPK activation (p38 MAPK) | effect on HG-induced expression of SHP-1 (SHP-1) | effect on HG-induced abrogation of PDGF-BB actions (PDGF-Beta receptor) | effect on HG-prevented tyrosine phosphorylation of PDGFR-β induced by PDGF (PDGF-Beta receptor; FIG. 16) |
| --- | --- | --- | --- | --- | --- | --- |
| CC(=O)N[C@@H](CS)C(=O)O [NAC, N-acetylcysteine] | not totally effective | partly able to prevent |  |  |  |  |
| CN(C)C[C@@H]1CCn2cc(c3ccccc32)C2=C(C(=O)NC2=O)c2cn(c3ccccc23)CCO1 [RBX] |  | ineffective | ineffective |  |  |  |
| C[S+]([O-])c1ccc(-c2nc(-c3ccncc3)c(-c3ccc(F)cc3)[nH]2)cc1 (stereo not shown) [SB203580] | not totally effective | partly able to prevent; also recorded: prevented apoptosis |  | prevented | abrogated PDGF-BB actions; also recorded: prevented | reversed |
| dominant negative form of SHP-1: dominant negative form of SHP-1 (Dubois et al., Nat. Med. 2006); C453S ablates phosphatase activity |  | reduces HG-induced apoptosis, even in the presence of PDGF |  |  |  |  |
